Test results: patent US20120088667A1, “SAFENING AGENT” (priority 2009, published 2012)
Read-outs that look alike come from different tables or passages of the source.

What was measured:
NAVY BEAN cv Mogex = experiment: Root nodulation and safening, navy bean, compost of normal pH (Example 7.4); conditions: compost of normal pH (6.5)
Source text: (§1) The safener/safening system and the fertiliser were applied to the crops either simultaneously or sequentially.
(§2) Co=100% Cobalt Sulphate (20 g per litre and per hectare). FF1=20 g per litre Cobalt Sulphate (as per Co above) plus “Miracle-Gro” at xl recommended rate (applied at 15 g per 2.5 sq metres). Miracle-Gro contains: 24% N, 4% P, 13% K, plus 0.02% B, 0.03% Cu, 0.19% Fe, 0.05% Mn, 0.001% Mo and 0.03% Zn. FF2=20 g per litre Cobalt Sulphate plus Miracle-Gro at ×2 recommended rate. SAF: at least one from class (f) each at <3 g/l, plus at least one from class (c).
NAVY BEAN cv Mogex. Scored/Counted+28 Days after Spraying. Dates as per Example 7.3 Above, but sown in compost of normal pH (6.5). Each treatment represents the mean value from 12 plants, within four replicates. No inoculum applied.

PEA cv Ragtime = experiment: Root nodulation and safening, pea, compost of normal pH (Example 7.6); conditions: compost of normal pH (6.5)
Source text: as §1, §2
PEA—TRIAL 7.6—cv Ragtime. Dates as per Example 7.5 above, but sown in compost of normal pH (6.5). […] No inoculum was applied.

Winter wheat cv Alchemy = experiment: Safening of herbicides (Chlorotoluron, Isoproturon, Flumioxazin), winter wheat
Source text: Safening systems were applied to crops of oilseed rape and winter treated with various herbicides (Bifenox (with insecticide), Carbetamide, Propaquizafop, Chlorotoluron, Isoproturon, Flumioxazin). The safening system and the herbicide were applied to the crops either simultaneously or sequentially.
Oilseed rape: cv Excalibur, sown 26 Apr. 2008, at two seeds per 9 cm pot, sown in normal pH multi-purpose compost. Date of spraying: 6 June; Dates of measurement/scoring: 13 June, 20 June, 5 July. Winter wheat: cv Alchemy, sown 23 Apr. 2008, at seven seeds per 9 cm pot, sown in normal pH multi-purpose compost. Date of spraying: 24 May; Dates of measurement/scoring: 31 May, 7 June, 21 June. SAF: at least one from class (f) each at <3 g/l, plus at least one from class (c).
Statistical Layout: Randomised Complete Block trials, under glasshouse conditions, United Kingdom.

Winter Barley cv Saffron [1] = experiment: Safening of fertilisers, pot trial: phytotoxicity and vigour scores, winter barley; type: in vivo; conditions: for Phytotoxicity (0-9) (0 = Dead) + 14 Days / Phytotoxicity (0-9) (0 = Dead) + 28 Days: score 0-9, 0 = dead; for Vigour (0-9) (9 = Most Vigour) + 14 days / Vigour (0-9) + 28 Days: score 0-9
Source text: The safening system and the fertilizer were applied either simultaneously or sequentially.
Sprayed: mid-tillering phase (GS23). Winter Wheat: cv Limerick, sown 4 Jun. […] Sprayed: mid-tillering phase (GS23). Lettuce: cv Set, sown 10 Jul. 2008, at one seed per pot, in John Innes No 1 compost. Date of spraying: 30 July; Dates of measurement: 7 August, 14 August, 28 August. Sprayed: 2 true leaf stage.

Winter Barley cv Saffron [2] = conditions: for Phytotoxicity (0-9) (0 = Dead) + 14 Days / Phytotoxicity (0-9) (0 = Dead) + 28 Days: score 0-9, 0 = Dead; for Vigour (0-9) (9 = Most Vigour) + 14 days: score 0-9, 9 = Most Vigour; for Vigour (0-9) + 28 Days: score 0-9, +28 days
Source text: (§3) The safening system and the fungicide were applied to the crops either simultaneously or sequentially, either as foliar applications or as a seed treatment.
(§4) Winter Barley: cv Saffron, sown 27 May 2008, at four/five seeds per 9 cm pot, sown in standard multi-purpose compost of pH 6.5. Date of spraying: 23 July; Dates of measurement/scoring: 30 July, 14 August, 22 August. Sprayed: mid-tillering phase (GS23). Winter Wheat: cv Limerick, sown 4 Jun. 2008, at four/five seeds per 9 cm pot, sown in standard multi-purpose compost of pH 6.5. Date of spraying: 23 July; Dates of measurement/scoring: 30 July, 14 August, 23 August. Sprayed: mid-tillering phase (GS23). Maize: cv Sundance, sown 25 May 2008, at 10 seeds per 25 cm pot, in John Innes No 1 compost. Date of measurement/assessment: 15 June. Seed treatment trial. Randomised block, mean of five replicates.
(§5) SAF: at least one from class (f) each at <3 g/l, plus at least one from class (c).

Winter Wheat cv Limerick = system: Winter Wheat cv Limerick
Source text: as §3, §4, §5

Soybean = experiment: Root nodulation and safening, soybean, compost of low pH (Example 7.1); conditions: Soybean, compost of low pH (5.0-5.5)
Source text: as §1, §2
Scored/Counted+28 Days After Spraying. Sown in Compost of low pH (5.0-5.5) on 1 May 2008. Spray Date (VC)=4 June, V1 Date=20 June. Scored/Measured on 17 July. […] Seed density approx 110 kg/ha. Soybean treated with standard inoculant at sowing.

[3] = Table 1.1, winter barley, phosphite fertiliser (KP)
[4] = Table 1.2, winter barley, KP/ATS
[5] = Table 1.3, winter barley, general fertilisers
[6] = Table 2.1, fungicide Prochloraz
[7] = Table 2.2, fungicide Flutriafol
[8] = Table 2.3, fungicides Fenpropidin and Flutriafol
[9] = Table 2.4, winter wheat, fungicide Prochloraz, score 0-9, 0 = Dead
[10] = Table 2.5, winter wheat, fungicide Flutriafol, score 0-9, 0 = Dead
[11] = score 0-9, 0 = dead, foliar, fungicides Fenpropidin and Flutriafol, Table 2.6
[12] = score 0-9, 9 = most vigour, foliar, fungicides Fenpropidin and Flutriafol, Table 2.6

Nc1ccccc1C(=O)O [AN, anthranilic acid]
Nodules Per Plant (V1) (NAVY BEAN cv Mogex; V1, +28 days after spraying, no inoculum): 32.2 | Nodulation Score (0-9) (V1) (NAVY BEAN cv Mogex; V1, score 0-9): 5.0 | Phyto-Toxicity Score (0-9) (V1) (NAVY BEAN cv Mogex; V1, score 0-9): 7.0 | Vigour Score (0-9) (V1) (NAVY BEAN cv Mogex; V1, score 0-9): 7.2 | Nodules Per Plant (VC) (NAVY BEAN cv Mogex; VC): 33.2 | Nod Score (0-9) (VC) (NAVY BEAN cv Mogex; VC, score 0-9): 5.1 | Nodules Per Plant (V1) (PEA cv Ragtime; V1, no inoculum): 17.2 | Nodulation Score (0-9) (V1) (PEA cv Ragtime; V1, score 0-9): 5.2 | Phyto-Toxicity Score (0-9) (V1) (PEA cv Ragtime; V1, score 0-9): 7.0 | Vigour Score (0-9) (V1) (PEA cv Ragtime; V1, score 0-9): 6.9 | Nodules Per Plant (VC) (PEA cv Ragtime; VC): 17.1 | Nod Score (0-9) (VC) (PEA cv Ragtime; VC, score 0-9): 5.2 | Greenness (0-9) (9 = Deeper Green) + 14 Days (Winter wheat cv Alchemy; Table 3.3, no herbicide): 8.0 | Phytotoxicity (0-9) (0 = Dead) + 14 Days (Winter wheat cv Alchemy; Table 3.3, no herbicide): 9.0 | Vigour (0-9) (9 = Most Vigour) + 14 days (Winter wheat cv Alchemy; Table 3.3, no herbicide): 9.0 | Greenness (0-9) + 28 Days (Winter wheat cv Alchemy; Table 3.3, no herbicide): 8.0 | Phytotoxicity (0-9) + 28 Days (Winter wheat cv Alchemy; Table 3.3, no herbicide): 8.0 | Vigour (0-9) + 28 Days (Winter wheat cv Alchemy; Table 3.3, no herbicide): 8.0 | Greenness (0-9) (9 = Deeper Green) + 14 Days (Winter wheat cv Alchemy; Table 3.4, no herbicide): 8.0 | Phytotoxicity (0-9) (0 = Dead) + 14 Days (Winter wheat cv Alchemy; Table 3.4, no herbicide): 9.0 | Vigour (0-9) (9 = Most Vigour) + 14 days (Winter wheat cv Alchemy; Table 3.4, no herbicide): 9.0 | Greenness (0-9) + 28 Days (Winter wheat cv Alchemy; Table 3.4, no herbicide): 8.0 | Phytotoxicity (0-9) + 28 Days (Winter wheat cv Alchemy; Table 3.4, no herbicide): 8.0 | Vigour (0-9) + 28 Days (Winter wheat cv Alchemy; Table 3.4, no herbicide): 8.0 | Greenness (0-9) (9 = Deeper Green) + 14 Days (Winter wheat cv Alchemy; Table 3.5, no herbicide): 8.0 | Phytotoxicity (0-9) (0 = Dead) + 14 Days (Winter wheat cv Alchemy; Table 3.5, no herbicide): 9.0 | Vigour (0-9) (9 = Most Vigour) + 14 days (Winter wheat cv Alchemy; Table 3.5, no herbicide): 9.0 | Greenness (0-9) + 28 Days (Winter wheat cv Alchemy; Table 3.5, no herbicide): 8.0 | Phytotoxicity (0-9) + 28 Days (Winter wheat cv Alchemy; Table 3.5, no herbicide): 8.0 | Vigour (0-9) + 28 Days (Winter wheat cv Alchemy; Table 3.5, no herbicide): 8.0 | Phytotoxicity (0-9) (0 = Dead) + 14 Days (Winter Barley cv Saffron [1]; [3]): 7.5 | Phytotoxicity (0-9) (0 = Dead) + 28 Days (Winter Barley cv Saffron [1]; [3]): 8.0 | Vigour (0-9) (9 = Most Vigour) + 14 days (Winter Barley cv Saffron [1]; [3]): 7.0 | Vigour (0-9) + 28 Days (Winter Barley cv Saffron [1]; [3]): 8.0 | Phytotoxicity (0-9) (0 = Dead) + 14 Days (Winter Barley cv Saffron [1]; Table 1.2, winter barley, KP + ammonium thiosulphate (KP/ATS)): 7.5 | Phytotoxicity (0-9) (0 = Dead) + 28 Days (Winter Barley cv Saffron [1]; [4]): 8.0 | Vigour (0-9) (9 = Most Vigour) + 14 days (Winter Barley cv Saffron [1]; [4]): 7.0 | Vigour (0-9) + 28 Days (Winter Barley cv Saffron [1]; [4]): 8.0 | Phytotoxicity (0-9) (0 = Dead) + 14 Days (Winter Barley cv Saffron [1]; Table 1.3, winter barley, general NPK fertilisers (GEN + KP, GENEX)): 7.5 | Phytotoxicity (0-9) (0 = Dead) + 28 Days (Winter Barley cv Saffron [1]; [5]): 8.0 | Vigour (0-9) (9 = Most Vigour) + 14 days (Winter Barley cv Saffron [1]; [5]): 7.0 | Vigour (0-9) + 28 Days (Winter Barley cv Saffron [1]; [5]): 8.0 | Phytotoxicity (0-9) (0 = Dead) + 14 Days (Winter Barley cv Saffron [2]; [6]): 7.5 | Phytotoxicity (0-9) (0 = Dead) + 28 Days (Winter Barley cv Saffron [2]; [6]): 8.0 | Vigour (0-9) (9 = Most Vigour) + 14 days (Winter Barley cv Saffron [2]; [6]): 7.0 | Vigour (0-9) + 28 Days (Winter Barley cv Saffron [2]; [6]): 8.0 | Phytotoxicity (0-9) (0 = Dead) + 14 Days (Winter Barley cv Saffron [2]; [7]): 7.5 | Phytotoxicity (0-9) (0 = Dead) + 28 Days (Winter Barley cv Saffron [2]; [7]): 8.0 | Vigour (0-9) (9 = Most Vigour) + 14 days (Winter Barley cv Saffron [2]; [7]): 7.0 | Vigour (0-9) + 28 Days (Winter Barley cv Saffron [2]; [7]): 8.0 | Phytotoxicity (0-9) (0 = Dead) + 14 Days (Winter Barley cv Saffron [2]; [8]): 7.5 | Phytotoxicity (0-9) (0 = Dead) + 28 Days (Winter Barley cv Saffron [2]; [8]): 8.0 | Vigour (0-9) (9 = Most Vigour) + 14 days (Winter Barley cv Saffron [2]; [8]): 7.0 | Vigour (0-9) + 28 Days (Winter Barley cv Saffron [2]; [8]): 8.0 | Phytotoxicity (0-9) (0 = Dead) + 14 Days (Winter Wheat cv Limerick; [9]): 7.5 | Phytotoxicity (0-9) (0 = Dead) + 28 Days (Winter Wheat cv Limerick; [9]): 8.0 | Vigour (0-9) (9 = Most Vigour) + 14 days (Winter Wheat cv Limerick; Table 2.4, winter wheat, fungicide Prochloraz, score 0-9, 9 = Most Vigour): 7.0 | Vigour (0-9) + 28 Days (Winter Wheat cv Limerick; Table 2.4, winter wheat, fungicide Prochloraz, score 0-9): 8.0 | Phytotoxicity (0-9) (0 = Dead) + 14 Days (Winter Wheat cv Limerick; [10]): 7.5 | Phytotoxicity (0-9) (0 = Dead) + 28 Days (Winter Wheat cv Limerick; [10]): 8.0 | Vigour (0-9) (9 = Most Vigour) + 14 days (Winter Wheat cv Limerick; Table 2.5, winter wheat, fungicide Flutriafol, score 0-9, 9 = Most Vigour): 7.0 | Vigour (0-9) + 28 Days (Winter Wheat cv Limerick; Table 2.5, winter wheat, fungicide Flutriafol, score 0-9): 8.0 | Phytotoxicity (0-9) (0 = Dead) + 14 Days (Winter Wheat cv Limerick; [11]): 7.5 | Phytotoxicity (0-9) (0 = Dead) + 28 Days (Winter Wheat cv Limerick; [11]): 8.0 | Vigour (0-9) (9 = Most Vigour) + 14 days (Winter Wheat cv Limerick; [12]): 7.0 | Vigour (0-9) + 28 Days (Winter Wheat cv Limerick; [12]): 8.0 | Nodules Per Plant (V1) (Soybean; V1, +28 days after spraying, mean of 12 plants): 28.2 | Nodulation Score (0-9) (V1) (Soybean; V1, score 0-9): 5.3 | Phyto-Toxicity Score (0-9) (V1) (Soybean; V1, score 0-9): 8.0 | Vigour Score (0-9) (V1) (Soybean; V1, score 0-9): 6.2 | Nodules Per Plant (VC) (Soybean; VC, +28 days after spraying): 33.2 | Nod Score (0-9) (VC) (Soybean; VC, score 0-9): 5.8
